According to the supplement of paper PMC4862054:

How the values were obtained:
MDA-MB-453 [1] = settings: 72 h
Procedure, shortened: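 Breast cancer cell lines in 20 µl suspension were seeded onto 384-well plates pre-loaded with compound dissolved in 5 µl medium, then incubated 72 h. For viability, 2.5 µl CellTiter-Blue was added for 2 h at 37 °C and fluorescence read at 560/590 nm. Each plate was normalised to vehicle and a positive kill control and checked by Z'-factor. EC50 comes from the fitted percent-inhibition dose-response curve, censored at the highest concentration; rows with zero drug sensitivity score were dropped.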

DU-4475 [2] = assay: normalised viability (% of control), CellTiter-Blue; higher = more viable cells (about 100 = DMSO control); settings: 10000 nM; incubation time: 72 h
Method: (§1)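 DSRT, CellTiter-Blue viability, 72 h incubation. Signal is normalised to DMSO and benzethonium chloride controls. Value is the normalised response at dose 9.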

CAL-85-1 [3] = assay: as above; settings: 10000 nM; incubation time: 72 h
Method: as §1

MDA-MB-453 [4] = assay: as above; settings: 10000 nM; incubation time: 72 h
Method: as §1

CAL-51 [5] = assay: as above; settings: 10000 nM; incubation time: 72 h
Method: as §1

CAL-148 [6] = assay: as above; settings: 10000 nM; incubation time: 72 h
Method: as §1

HCC1599 [7] = assay: drug sensitivity score (DSS), CellTiter-Blue viability (DSS (AUC-based score)); higher = stronger viability inhibition; extreme values may be limits of the assay; settings: incubation time: 72 h
Method: (§2)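 DSRT with the CellTiter-Blue (resazurin reduction) viability readout, fluorescence 560/590 nm, 72 h incubation. Plates were normalised to DMSO and benzethonium chloride controls. DSS is computed from the area under the fitted dose-response curve (5 or 9 concentrations).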

CAL-120 [8] = assay: as above; settings: incubation time: 72 h
Method: as §2

MDA-MB-436 [9] = assay: as above; settings: incubation time: 72 h
Method: as §2

Hs578T [10] = assay: as above; settings: incubation time: 72 h
Method: as §2

DU-4475 [11] = assay: normalised viability (% of control), CellTiter-Blue; higher = more viable cells (about 100 = DMSO control); settings: 100 nM; incubation time: 72 h
Procedure, shortened: (§3)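 Normalised viability is given for a single listed concentration of the series. In 384-well plates, breast cancer cell lines were incubated 72 h with compound, then read with CellTiter-Blue (2 h, 37 °C) at 560/590 nm. Per-plate scaling set vehicle to 100 and a positive kill control to 0, with Z'-factor quality control.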

HCC1937 = assay: as above; settings: 10000 nM; incubation time: 72 h
Procedure, shortened: as §3

MDA-MB-468 = assay: as above; settings: 10000 nM; incubation time: 72 h
Procedure, shortened: as §3

HCC1599 [12] = assay: as above; settings: 10000 nM; incubation time: 72 h
Procedure, shortened: as §3

CAL-85-1 [13] = assay: as above; settings: 100 nM; incubation time: 72 h
Procedure, shortened: as §3

MDA-MB-453 [14] = assay: as above; settings: 100 nM; incubation time: 72 h
Procedure, shortened: as §3

MDA-MB-231 = assay: as above; settings: 10000 nM; incubation time: 72 h
Procedure, shortened: as §3

BT-474 = assay: as above; settings: 10000 nM; incubation time: 72 h
Procedure, shortened: as §3

CAL-120 [15] = assay: as above; settings: 10000 nM; incubation time: 72 h
Procedure, shortened: as §3

HCC1143 = assay: as above; settings: 10000 nM; incubation time: 72 h
Procedure, shortened: as §3

BT-549 = assay: as above; settings: 10000 nM; incubation time: 72 h
Procedure, shortened: as §3

SK-BR-3 = assay: as above; settings: 10000 nM; incubation time: 72 h
Procedure, shortened: as §3

MDA-MB-436 [16] = assay: as above; settings: 10000 nM; incubation time: 72 h
Procedure, shortened: as §3

Hs578T [17] = assay: as above; settings: 10000 nM; incubation time: 72 h
Procedure, shortened: as §3

CAL-51 [18] = assay: as above; settings: 100 nM; incubation time: 72 h
Procedure, shortened: as §3

CAL-148 [19] = assay: as above; settings: 100 nM; incubation time: 72 h
Procedure, shortened: as §3

MFM-223 = assay: as above; settings: 10000 nM; incubation time: 72 h
Procedure, shortened: as §3

HDQ-P1 = assay: as above; settings: 100 nM; incubation time: 72 h
Procedure, shortened: as §3

Row | Structure (SMILES) | EC50, CellTiter-Blue viability (MDA-MB-453 [1]) | normalised viability (DU-4475 [2]) | normalised viability (CAL-85-1 [3]) | normalised viability (MDA-MB-453 [4]) | normalised viability (CAL-51 [5]) | normalised viability (CAL-148 [6]) | drug sensitivity score (HCC1599 [7]) | drug sensitivity score (CAL-120 [8]) | drug sensitivity score (MDA-MB-436 [9]) | drug sensitivity score (Hs578T [10]) | normalised viability (DU-4475 [11]) | normalised viability (HCC1937) | normalised viability (MDA-MB-468) | normalised viability (HCC1599 [12]) | normalised viability (CAL-85-1 [13]) | normalised viability (MDA-MB-453 [14]) | normalised viability (MDA-MB-231) | normalised viability (BT-474) | normalised viability (CAL-120 [15]) | normalised viability (HCC1143) | normalised viability (BT-549) | normalised viability (SK-BR-3) | normalised viability (MDA-MB-436 [16]) | normalised viability (Hs578T [17]) | normalised viability (CAL-51 [18]) | normalised viability (CAL-148 [19]) | normalised viability (MFM-223) | normalised viability (HDQ-P1)
1 | Cn1cncc1[C@@](N)(c1ccc(Cl)cc1)c1ccc2c(c1)c(-c1cccc(Cl)c1)cc(=O)n2C [Tipifarnib] | 1430 nM | 15.7% | 47.2% | 19.9% | 20.4% | 26.7% | 9.57 | 12.4 | 0 | 5.75 | 54.9% | 32.3% | 26.4% | 51.7% | 76.8% | 73.6% | 48.8% | 45% | 32.7% | 59.7% | 30.1% | 23.8% | 54.9% | 39.3% | 63.4% | 45.6% | 29.7% | 70.7%
2 | CC(C)(C#N)c1cc(Cn2cncn2)cc(C(C)(C)C#N)c1 [Anastrozole] | – | 112% | 93.9% | 79.8% | 104% | 94.2% | 0 | 0 | 0 | 0 | 98.7% | 90.9% | 95.2% | 104% | 91.8% | 94.1% | 106% | 122% | 90.2% | 80.5% | 85.1% | 102% | 97.1% | 107% | 111% | 98.1% | 90.5% | 91.8%
